Assay results taken from patent publication US20060229354A1, “Use of Isatin in stimulating red blood cell production and treatment of anemia” (priority 2005, published 2006).

Key:
UT7/EPO cells [1] = experiment: Apoptosis Assay (AA), EPO-deprived UT7/EPO cells; assay type: cell-based
Protocol: UT7/EPO cells treated by Isatin or EPO or PBS was plated in triplicate in 96-well microtiter plates in 50 μl of culture medium and incubated for different time course. The cell apoptosis products were determined by Florence-probe. The cell apoptosis rate was calculated by positive apoptosis fragments.
We used several assays as mentioned in Materials and Methods section to evaluate the pharmacological activity of Isatin compound by examining the growth or the apoptosis of UT7/EPO cells. The cells used in AA assay are UT7/EPO. UT7/EPO cells were deprived from UT7 by elegant genetic engineering. As a result, the survival and growth of UT7/EPO cells rely on the stimulation of EPO-R by the exogenous EPO treatment. On the other hand, without the support of the exogenous EPO, the UT7/EPO cells will die. […] We used different assays to measure the level of apoptosis in UT7/EPO cells. If the tested compounds have erythropoietic agonist effect, the level of apoptosis in UT7/EPO cells should decrease in response to the treatment. […] Compared to EPO, higher dose of Isatin was required to generate the same extent of inhibition.

UT7/EPO cells [2] = experiment: DNA Ladder Detection Assay, EPO-deprived UT7/EPO cells; assay type: cell-based; settings: Isatin treatment
Protocol: 10^6 UT7/EPO cells, after treated with either Isatin or EPO or PBS, was lysed with 150 ul hypotonic lysis buffer (10 mM EDTA, 0.5% Triton X-100 in […] Tris-HCl, pH 7.4) for 15 minutes on ice and were precipitated with 2.5% polyethylene glycerol and 1 M NaCl for 15 minutes at 4 C. After centrifugation at 16,000 rpm for 10 minutes at room temperature, the supernatant was incubated in the presence of proteinase K (0.3 g/L) at 37° C. for one hour and precipitated with isopropanol at −20° C. After centrifugation, each cell pellet was dissolved in 10 ul of Tris-EDTA (pH 7.6) and electrophoresed on a 1.5% agarose gell containing ethidium bromide. Ladder formation of oligonucleosomal DNA was detected under ultraviolet.

MO7E cells = experiment: Apoptosis Assay (AA), GM-CSF-deprived MO7E cells; assay type: cell-based; settings: FIG. 4
UT7/EPO cells [3] = experiment: Calcein-AM release assay, EPO-deprived UT7/EPO cells; assay type: cell-based; settings: Isatin treatment
Protocol: Calcein-AM was purchased from Molecular Probes (Eugene) as a 1 mg/ml solution in dry dimethyl sulfoxide. UT7/EPO cells were resuspended in complete medium at a final concentration of 10^6/ml and incubated with 15 uM calcein-AM for 30 mininutes at 37° C. with occasional shaking. After two washes in the same way as the ^51Cr assay in V bottom 96-well microtiter plates, with E:T ratios ranging from 50:1 to 0.5:1, in triplicate, and with at least six replicate wells for spontaneous and maximum release. Various numbers of UT7/EPO cells treated with Isatin or EPO or with untreated cells were seeded as follows. After incubation 37° C. in 5% CO2 for 4 hours, 75 ul of each supernatant was harvested and transferred into new plates. The samples were measured using a Sepctramax Gemini dual-scanning microplate spectrofluoimeter. Data were expressed as arbitrary fluorescent unites (AFU). Percent lysis was calculated with the same formula used for the ^51Cr for the ^51CR assay.

JAK2-associated EPOR = experiment: Immunoprecipitate study of phosphorylation of JAK2-associated EPOR in UT7/EPO cells; assay type: cell-based
Protocol: Referring to FIG. 5B, the Isatin-induced EPO-R phosphorylation occurs 5 minutes after the treatment and sustains beyond 1 hour afterwards.

RPM18226 cells = experiment: Melphalan-induced apoptosis in RPM18226 cells; assay type: cell-based; settings: data not shown
STAT5 = experiment: Immunoprecipitate analysis of STAT5 phosphorylation in UT7/EPO cells; assay type: cell-based; settings: FIG. 6
Description: FIG. 6 illustrates the results of Immunoprecipiate analysis of the effects of EPO and Isatin on STAT5 phosphorylation in UT7/EPO Cells.
Activation of EPO-R by EPO is predominately mediated by JAK signaling pathway, and STAT5 protein is the major component involving in this signal transduction. We studied the activity of STAT5 in response to Isatin treatment.

UT7/EPO cells [4] = experiment: Viable cell counts (trypan blue staining), EPO-deprived UT7/EPO cells; assay type: cell-based; settings: Isatin treatment
[5] = tested on: freshly isolated peripheral blood mononuclear cells; experiment: Melphalan-induced apoptosis in peripheral blood mononuclear cells; assay type: cell-based; settings: data not shown
UT7/EPO cells [6] = experiment: MTT assay, EPO-deprived UT7/EPO cells; assay type: cell-based; settings: Isatin treatment
Protocol: UT7/EPO cells were cultured for 4 hours and then placed in triplicate in 96 well microtiter plates. The cell was treated with Isatin or EPO or PBS and cultured in 100 ul of DMEM, 10% FCS, overnight. The next day, media was removed and replace MTT assay solution. The plates were incubated for and addition 48 hours. And then cell viability was determined using a MTT assay, as described by manufacture (Sigma).

[7] = initial phase of therapy; cited from earlier work
[8] = refrigerator between 2° C. and 8° C.; cited from earlier work

Row | Molecule | IC50 (UT7/EPO cells [1]; Homo sapiens, UT-7/Epo, read-out: IC50 for inhibiting apoptosis in UT7/EPO cells) [µM] | effect of Isatin used together with EPO on apoptosis inhibition / EPO-R activity (UT7/EPO cells [1]; Isatin together with EPO, UT7/EPO cells, FIG. 3) | AA (apoptosis) (UT7/EPO cells [1]; Isatin treatment, EPO-deprived UT7/EPO cells) | erythropoietic stimulation effect compared with EPO (UT7/EPO cells [1]; UT7/EPO cells, comparison with EPO) | apoptosis inhibition on UT7/EPO cells, concentration dependence (UT7/EPO cells [1]; increasing Isatin concentration, FIGS. 2A and 2B) | DNA Ladder Assay (UT7/EPO cells [2]) | inhibition of GM-CSF withdrawal-induced apoptosis in MO7E cells (MO7E cells) | Calcein (cell viability) (UT7/EPO cells [3]) | duration of EPO-R phosphorylation after treatment (JAK2-associated EPOR; FIG. 5B) [h] | time of onset of EPO-R phosphorylation after treatment (JAK2-associated EPOR; FIG. 5B) [min] | phosphorylation of EPO-R through JAK2 mediated signaling pathway (JAK2-associated EPOR; FIGS. 5A and 5B) | phosphorylation of EPO-R, Isatin used together with EPO (JAK2-associated EPOR; Isatin together with EPO) | inhibition of Melphalan-induced apoptosis in RPM18226 cells (RPM18226 cells) | STAT5 activity (phosphorylation) during treatment (STAT5) | Viable Cell Counts (trypan blue staining) (UT7/EPO cells [4]) | inhibition of Melphalan-induced apoptosis in freshly isolated peripheral blood mononuclear cells [5] | MTT (cell viability) (UT7/EPO cells [6]) | increase in the hematocrit [7] [% per week] | shelf life of multi-dose vials in refrigerator after the initial dose [8]
1 | O=C1Nc2ccccc2C1=O [Isatin, Indole-2,3-dione] | ~10 | synergistic effect | ↓ | weaker than that of EPO | steadily enhanced when the concentration of Isatin was increased | ↓ | no noted inhibition | ↑ | > 1 | 5 | induces phosphorylation of EPO-R | significantly enhance the phosphorylation of EPO-R | no noted inhibition | no change in STAT5 activity | ↑ | no noted inhibition | ↑ |  | 
2 | Epoetin alfa: recombinant EPO protein developed by Amgen, approved by FDA for the treatment of anemia |  |  |  |  |  |  |  |  |  |  |  |  |  |  |  |  |  | 2 | about 20 days
